Reference: US20100010057A1, “THIAZOLE DERIVATIVES AS INHIBITORS OF P13 KINASE” (CHROMA THERAPEUTICS LTD., priority 2006, published 2010)

Columns and labels:
[1] = target: PI3Kγ (human) (Homo sapiens, UniProt P48736); assay: Inhibition of PI3 kinase γ activity (HTRF); assay type: biochemical; details: ATP at or close to Km, IC50 range, read-out: Inhibitor activity versus PI3 Kinase γ
Procedure: (B) Inhibition of PI3 Kinase V Activity
In a final reaction volume of 20 μl, PI3Kγ (human) is incubated in assay buffer containing 10 μM phosphatidylinositol-4,5-bisphosphate and MgATP (concentration as required). The reaction is initiated by the addition of the MgATP mix. After incubation for 30 minutes at room temperature, the reaction is stopped by the addition of 5 μl of stop solution containing EDTA and biotinylated phosphatidylinositol-3,4,5-trisphosphate. Finally, 5 μl of detection buffer is added, which contains europium-labelled anti-GST monoclonal antibody, GST-tagged GRP1 PH domain and streptavidin-allophycocyanin. The plate is then read in time-resolved fluorescence mode and the homogenous time-resolved fluorescence (HTRF) signal is determined according to the formula HTRF=10000×(Em665 nm/Em620 nm).
Duplicate data points are generated from a ⅓ log dilution series of a stock solution of compound in DMSO. Nine dilutions steps are made from a top concentration of 10 μM, and a ‘no compound’ blank is included. The HTRF PI 3-Kinase assay is performed at an ATP concentration at, or close to, the Km. HTRF ratio data is transformed into % activity of controls and analysed with a four parameter sigmoidal dose-response (variable slope) application. QC criteria is based on Top, Bottom, Hill slope, r^2 and IC50, the concentration giving 50% inhibition, which is reported.
(§1) For each of the assays (B), (C) and (D) above, IC50 values are allocated to one of three ranges as follows: […]

[2] = tested on: THP-1 cells; assay: LPS-stimulation of THP-1 cells, TNF-α release; assay type: cell-based; details: Homo sapiens, LPS 1 μg/ml, 6 h, TNF-α by ELISA, IC50 range, read-out: Inhibitor activity versus THP-1 TNFα release
Procedure: (C) LPS-Stimulation of THP-1 Cells
THP-1 cells are plated in 100 μl at a density of 4×10^4 cells/well in V-bottomed 96 well tissue culture treated plates and incubated at 37° C. in 5% CO2 for 16 h. 2 h after the addition of the inhibitor in 100 μl of tissue culture media, the cells are stimulated with LPS (E. coli strain 005:B5, Sigma) at a final concentration of 1 μg/ml and incubated at 37° C. in 5% CO2 for 6 h. TNF-α levels are measured from cell-free supernatants by sandwich ELISA (R&D Systems #QTA00B)
as §1

[3] = tested on: human whole blood; assay: LPS-stimulation of human whole blood, TNF-α release; assay type: cell-based; details: LPS 100 ng/ml, 6 h, TNF-α by ELISA, IC50 range, read-out: Inhibitor activity versus human whole blood TNFα release
Procedure: (D) LPS-Stimulation of Human Whole Blood
Whole blood is taken by venous puncture using heparinised vacutainers (Becton Dickinson) and diluted in an equal volume of RPMI1640 tissue culture media (Sigma). 100 μl is plated in V-bottomed 96 well tissue culture treated plates. 2 h after the addition of the inhibitor in 100 μl of RPMI1640 media, the blood is stimulated with LPS (E. coli strain 005:B5, Sigma) at a final concentration of 100 ng/ml and incubated at 37° C. in 5% CO2 for 6 h. TNF-α levels are measured from cell-free supernatants by sandwich ELISA (R&D Systems #QTA00B)
as §1

PI3Kγ (human), sequence (P48736 whole entry): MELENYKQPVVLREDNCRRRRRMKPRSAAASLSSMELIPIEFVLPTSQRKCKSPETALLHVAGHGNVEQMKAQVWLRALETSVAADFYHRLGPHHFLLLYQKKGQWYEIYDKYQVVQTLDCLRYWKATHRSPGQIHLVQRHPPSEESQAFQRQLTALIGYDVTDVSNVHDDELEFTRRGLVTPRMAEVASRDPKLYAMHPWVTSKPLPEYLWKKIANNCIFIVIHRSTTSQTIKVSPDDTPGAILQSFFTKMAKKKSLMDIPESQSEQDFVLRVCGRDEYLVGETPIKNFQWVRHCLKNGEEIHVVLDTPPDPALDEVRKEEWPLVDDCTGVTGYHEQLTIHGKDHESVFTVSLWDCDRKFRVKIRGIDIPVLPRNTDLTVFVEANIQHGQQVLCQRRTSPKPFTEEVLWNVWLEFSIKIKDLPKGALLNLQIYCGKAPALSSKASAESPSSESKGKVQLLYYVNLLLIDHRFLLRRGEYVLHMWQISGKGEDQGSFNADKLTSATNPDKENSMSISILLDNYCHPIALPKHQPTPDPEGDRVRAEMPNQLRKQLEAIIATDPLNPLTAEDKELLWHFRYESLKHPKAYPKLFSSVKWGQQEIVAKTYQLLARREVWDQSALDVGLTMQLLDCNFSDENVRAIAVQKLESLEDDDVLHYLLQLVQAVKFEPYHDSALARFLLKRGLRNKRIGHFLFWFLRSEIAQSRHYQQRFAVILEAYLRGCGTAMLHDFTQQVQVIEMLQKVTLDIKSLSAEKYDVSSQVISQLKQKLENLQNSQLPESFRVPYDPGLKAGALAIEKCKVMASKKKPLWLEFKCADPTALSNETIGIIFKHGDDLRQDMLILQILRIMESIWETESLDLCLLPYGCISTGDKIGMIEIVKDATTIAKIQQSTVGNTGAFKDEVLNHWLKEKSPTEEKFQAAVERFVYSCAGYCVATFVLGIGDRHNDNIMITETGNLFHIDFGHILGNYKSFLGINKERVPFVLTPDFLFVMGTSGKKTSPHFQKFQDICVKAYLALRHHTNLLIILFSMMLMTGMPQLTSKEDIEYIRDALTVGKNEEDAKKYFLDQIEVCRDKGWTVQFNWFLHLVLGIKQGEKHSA

## Cc1nc(NC(=O)CCCN[C@@H](CC(C)C)C(=O)OC2CCCC2)sc1-c1ccc(Cl)c(S(C)(=O)=O)c1 [Example 6, Cyclopentyl N-[4-({5-[4-chloro-3-(methylsulfonyl)phenyl]-4-methyl-1,3-thiazol-2-yl}amino)-4-oxobutyl]-L-leucinate]
[1]
  IC50: 0.1 to 1 µM
[2]
  IC50: 0.1 to 1 µM
[3]
  IC50: > 1 µM

## Cc1nc(NC(=O)CCCN[C@@H](C)C(=O)OC2CCCC2)sc1-c1ccc(Cl)c(S(C)(=O)=O)c1 [Example 7, Cyclopentyl N-[4-({5-[4-chloro-3-(methylsulfonyl)phenyl]-4-methyl-1,3-thiazol-2-yl}amino)-4-oxobutyl]-L-alaninate]
[1]
  IC50: > 1 µM
[2]
  IC50: 0.1 to 1 µM
[3]
  IC50: 0.1 to 1 µM

## Cc1nc(NCCCN[C@@H](CC(C)C)C(=O)OC2CCCC2)sc1-c1ccc(Cl)c(S(C)(=O)=O)c1 [Example 17, Cyclopentyl N-[3-({5-[4-chloro-3-(methylsulfonyl)phenyl]-4-methyl-1,3-thiazol-2-yl}amino)propyl]-L-leucinate]
[1]
  IC50: > 1 µM
[2]
  IC50: > 1 µM

## Cc1nc(NCC2CCC(N[C@@H](CC(C)C)C(=O)OC3CCCC3)CC2)sc1-c1ccc(Cl)c(S(C)(=O)=O)c1 (stereo partly drawn) [Example 18, Cyclopentyl N-{4-[({5-[4-chloro-3-(methylsulfonyl)phenyl]-4-methyl-1,3-thiazol-2-yl}amino)methyl]cyclohexyl}-L-leucinate]
[1]
  IC50: > 1 µM
[2]
  IC50: > 1 µM

## Cc1nc(NCC2CCC(N[C@@H](CC(C)C)C(=O)OC(C)(C)C)CC2)sc1-c1ccc(Cl)c(S(C)(=O)=O)c1 (stereo partly drawn) [Example 19, tert-Butyl N-{4-[({5-[4-chloro-3-(methylsulfonyl)phenyl]-4-methyl-1,3-thiazol-2-yl}amino)methyl]cyclohexyl}-L-leucinate]
[1]
  IC50: > 1 µM
[2]
  IC50: > 1 µM

## CC(=O)Nc1nc(C)c(-c2ccc(Cl)c(S(=O)(=O)N[C@@H](C)C(=O)OC3CCCC3)c2)s1 [Example 20, Cyclopentyl N-{[5-(2-acetamido-4-methyl-1,3-thiazol-5-yl)-2-chlorophenyl]sulfonyl}-L-alaninate]
[1]
  IC50: < 0.1 µM
[2]
  IC50: > 1 µM

## CC(=O)Nc1nc(C)c(-c2ccc(Cl)c(S(=O)(=O)N[C@@H](COC(C)(C)C)C(=O)OC3CCCC3)c2)s1 [Example 21, Cyclopentyl N-{[5-(2-acetamido-4-methyl-3-thiazol-5-yl)-2-chlorophenyl]sulfonyl}-O-tert-butyl-L-serinate]
[1]
  IC50: 0.1 to 1 µM
[2]
  IC50: > 1 µM

## CC(=O)Nc1nc(C)c(-c2ccc(Cl)c(S(=O)(=O)NCCN[C@@H](CC(C)C)C(=O)OC3CCCC3)c2)s1 [Example 22, Cyclopentyl N-[2-({[5-(2-acetamido-4-methyl-1,3-thiazol-5-yl)-2-chlorophenyl]sulfonyl}amino)ethyl]-L-leucinate]
[1]
  IC50: > 1 µM
[2]
  IC50: > 1 µM

## Cc1nc(NC(=O)N[C@@H](CO)C(=O)OC2CCCC2)sc1-c1ccc(Cl)c(S(C)(=O)=O)c1 [Example 23, Cyclopentyl N-({5-[4-chloro-3-(methylsulfonyl)phenyl]-4-methyl-1,3-thiazol-2-yl}carbamoyl)-L-serinate]
[1]
  IC50: > 1 µM
[2]
  IC50: > 1 µM

## Cc1nc(NC(=O)CCCN[C@@H](CO)C(=O)OC2CCCC2)sc1-c1ccc(Cl)c(S(C)(=O)=O)c1 [Example 24, Cyclopentyl N-[4-({5-[4-chloro-3-(methylsulfonyl)phenyl]-4-methyl-1,3-thiazol-2-yl}amino)-4-oxobutyl]-L-serinate]
[1]
  IC50: > 1 µM
[2]
  IC50: < 0.1 µM
[3]
  IC50: 0.1 to 1 µM

## CC(=O)Nc1nc(C)c(-c2ccc(Cl)c(S(=O)(=O)N[C@@H](CO)C(=O)OC3CCCC3)c2)s1 [Example 25, Cyclopentyl N-{[5-(2-acetamido-4-methyl-1,3-thiazol-5-yl)-2-chlorophenyl]sulfonyl}-L-serinate]
[1]
  IC50: 0.1 to 1 µM
[2]
  IC50: > 1 µM

## Cc1nc(NC(=O)CCCN[C@@H](COP(=O)(O)O)C(=O)OC2CCCC2)sc1-c1ccc(Cl)c(S(C)(=O)=O)c1 [Example 26, Cyclopentyl N-[4-({5-[4-chloro-3-(methylsulfonyl)phenyl]-4-methyl-1,3-thiazol-2-yl}amino)-4-oxobutyl]-O-phosphono-L-serinate]
[1]
  IC50: < 0.1 µM
[2]
  IC50: > 1 µM
